{"source": "patent US7705025B2", "about": "“Histamine H3 receptor agents, preparation and therapeutic uses” (Eli Lilly and Company, priority 2004, dated 2010)", "target": "T1, human histamine 3 receptor (Homo sapiens, UniProt Q9Y5N1)", "T1 construct": "expressed in transfected cells; membranes", "T1 sequence (Q9Y5N1 whole entry)": "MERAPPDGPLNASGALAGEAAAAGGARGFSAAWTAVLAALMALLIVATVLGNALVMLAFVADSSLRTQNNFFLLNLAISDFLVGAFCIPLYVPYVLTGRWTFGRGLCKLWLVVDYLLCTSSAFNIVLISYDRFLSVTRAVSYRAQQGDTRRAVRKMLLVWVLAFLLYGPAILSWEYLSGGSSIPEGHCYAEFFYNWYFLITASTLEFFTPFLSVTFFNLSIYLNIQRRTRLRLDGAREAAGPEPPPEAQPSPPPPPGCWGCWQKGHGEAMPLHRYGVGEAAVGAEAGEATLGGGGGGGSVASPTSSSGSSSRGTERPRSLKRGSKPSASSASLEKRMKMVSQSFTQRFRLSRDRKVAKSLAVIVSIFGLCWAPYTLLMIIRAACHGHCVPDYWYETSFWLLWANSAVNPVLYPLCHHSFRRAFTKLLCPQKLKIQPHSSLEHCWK", "assay": "H3R binding assay (competitive inhibition SPA, [3H] α methylhistamine)", "conditions": "membranes of HEK293 clone H3R8", "excerpt": "The compounds of the present invention can readily be evaluated by using a competitive inhibition Scintillation Proximity Assay (SPA) based on a H3R binding assay using [3H] α methylhistamine as ligand. Stable cell lines, including but not limited to HEK can be transfected with cDNA coding for H3R to prepare membranes used for the binding assay. The technique is illustrated below (Preparation of Histamine Receptor Subtype Membranes) for the histamine receptor subtypes.\ncDNA for the human histamine 1 receptor (H1R) was cloned into a mammalian expression vector containing the CMV promoter (pcDNA3.1(+), Invitogen) and transfected into HEK293 cells using the FuGENE Tranfection Reagent (Roche Diagnostics Corporation). Transfected cells were selected using G418 (500 μ/mL). Colonies that survived selection were grown and tested for histamine binding to cells grown in 96-well dishes using a scintillation proximity assay (SPA) based radioligand binding assay. Briefly, cells, representing individual selected clones, were grown as confluent monolayers in 96-well dishes (Costar Clear Bottom Plates, #3632) by seeding wells with 25,000 cells and growing for 48 hours (37° C., 5% CO2). […] Plates were counted in a Wallac Trilux 1450 Microbeta scintillation counter. […]\ncDNA for the human histamine 3 receptor was cloned and expressed as described in (A. Preparation H1R membranes), above. […]", "data": [{"molecule": "O=C(c1ccc(-c2cccs2)nc1)N1CCC[C@H]1CN1CCCC1", "values": [{"measurement": "Ki", "value": 13.8, "unit": "nM"}]}, {"molecule": "O=C(c1ccc(-c2nc(-c3cccnc3)cs2)cc1)N1CCC[C@H]1CN1CCCC1", "values": [{"measurement": "Ki", "value": 3.1, "unit": "nM"}]}]}
